Laboratory results: article PMC5951806, “Rapid labelling and covalent inhibition of intracellular native proteins using ligand-directed N-acyl-N-alkyl sulfonamide” (Nature Communications, 2018)

Key:
Test in all cases: TMT LC-MSMS of 11-labelled proteins
Type in all cases: cell-based
[1] = molecular target: Sodium/potassium-transporting ATPase subunit alpha-1 (ATP1A1) (Homo sapiens, UniProt P05023)
[2] = molecular target: tubulin beta chain (TUBB) (Homo sapiens, UniProt P07437)
[3] = molecular target: Isoform 2 of Elongation factor 1-gamma (EEF1G) (Homo sapiens, UniProt P26641); conditions: SKBR3 cells; for Abundance Ratio: (11) / (DMSO): 11 0.5 µM 3 h vs DMSO; for Abundance Ratio: (11) / (11 with PU-H71): 11 0.5 µM 3 h vs with PU-H71 10 µM
Chain of Isoform 2 of Elongation factor 1-gamma (EEF1G) (P26641 5-437 limits assumed): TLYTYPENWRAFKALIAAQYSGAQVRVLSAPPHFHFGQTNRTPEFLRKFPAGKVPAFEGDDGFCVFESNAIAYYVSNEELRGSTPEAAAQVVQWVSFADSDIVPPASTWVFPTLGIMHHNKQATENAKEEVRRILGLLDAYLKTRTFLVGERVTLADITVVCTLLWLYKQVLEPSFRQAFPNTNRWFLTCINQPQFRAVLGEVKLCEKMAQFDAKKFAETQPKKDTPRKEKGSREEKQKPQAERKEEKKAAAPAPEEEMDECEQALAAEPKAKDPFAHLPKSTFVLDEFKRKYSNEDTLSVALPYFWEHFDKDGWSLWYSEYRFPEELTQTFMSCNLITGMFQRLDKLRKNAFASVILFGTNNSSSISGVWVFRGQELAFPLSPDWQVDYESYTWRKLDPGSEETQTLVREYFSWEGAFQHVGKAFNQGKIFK

[4] = molecular target: Cytochrome b-c1 complex subunit 1, mitochondrial (UQCRC1) (Homo sapiens, UniProt P31930)
[5] = molecular target: Protein disulfide-isomerase (P4HB) (Homo sapiens, UniProt P07237)
Chain of Protein disulfide-isomerase (P4HB) (P07237 18-508): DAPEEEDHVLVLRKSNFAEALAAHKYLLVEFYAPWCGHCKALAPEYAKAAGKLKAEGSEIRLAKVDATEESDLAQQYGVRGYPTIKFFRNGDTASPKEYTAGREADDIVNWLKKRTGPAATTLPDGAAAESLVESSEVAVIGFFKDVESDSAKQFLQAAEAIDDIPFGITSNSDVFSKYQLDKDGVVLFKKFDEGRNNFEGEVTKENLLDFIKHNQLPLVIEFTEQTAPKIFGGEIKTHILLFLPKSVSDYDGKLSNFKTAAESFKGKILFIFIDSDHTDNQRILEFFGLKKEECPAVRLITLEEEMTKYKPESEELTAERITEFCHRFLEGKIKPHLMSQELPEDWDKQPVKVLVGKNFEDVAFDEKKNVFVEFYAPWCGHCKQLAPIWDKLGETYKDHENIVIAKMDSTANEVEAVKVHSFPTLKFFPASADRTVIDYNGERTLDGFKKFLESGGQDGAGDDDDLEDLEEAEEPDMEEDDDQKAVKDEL

[6] = molecular target: Fatty acid synthase (FASN) (Homo sapiens, UniProt P49327)
Chain of Fatty acid synthase (FASN) (P49327 whole entry): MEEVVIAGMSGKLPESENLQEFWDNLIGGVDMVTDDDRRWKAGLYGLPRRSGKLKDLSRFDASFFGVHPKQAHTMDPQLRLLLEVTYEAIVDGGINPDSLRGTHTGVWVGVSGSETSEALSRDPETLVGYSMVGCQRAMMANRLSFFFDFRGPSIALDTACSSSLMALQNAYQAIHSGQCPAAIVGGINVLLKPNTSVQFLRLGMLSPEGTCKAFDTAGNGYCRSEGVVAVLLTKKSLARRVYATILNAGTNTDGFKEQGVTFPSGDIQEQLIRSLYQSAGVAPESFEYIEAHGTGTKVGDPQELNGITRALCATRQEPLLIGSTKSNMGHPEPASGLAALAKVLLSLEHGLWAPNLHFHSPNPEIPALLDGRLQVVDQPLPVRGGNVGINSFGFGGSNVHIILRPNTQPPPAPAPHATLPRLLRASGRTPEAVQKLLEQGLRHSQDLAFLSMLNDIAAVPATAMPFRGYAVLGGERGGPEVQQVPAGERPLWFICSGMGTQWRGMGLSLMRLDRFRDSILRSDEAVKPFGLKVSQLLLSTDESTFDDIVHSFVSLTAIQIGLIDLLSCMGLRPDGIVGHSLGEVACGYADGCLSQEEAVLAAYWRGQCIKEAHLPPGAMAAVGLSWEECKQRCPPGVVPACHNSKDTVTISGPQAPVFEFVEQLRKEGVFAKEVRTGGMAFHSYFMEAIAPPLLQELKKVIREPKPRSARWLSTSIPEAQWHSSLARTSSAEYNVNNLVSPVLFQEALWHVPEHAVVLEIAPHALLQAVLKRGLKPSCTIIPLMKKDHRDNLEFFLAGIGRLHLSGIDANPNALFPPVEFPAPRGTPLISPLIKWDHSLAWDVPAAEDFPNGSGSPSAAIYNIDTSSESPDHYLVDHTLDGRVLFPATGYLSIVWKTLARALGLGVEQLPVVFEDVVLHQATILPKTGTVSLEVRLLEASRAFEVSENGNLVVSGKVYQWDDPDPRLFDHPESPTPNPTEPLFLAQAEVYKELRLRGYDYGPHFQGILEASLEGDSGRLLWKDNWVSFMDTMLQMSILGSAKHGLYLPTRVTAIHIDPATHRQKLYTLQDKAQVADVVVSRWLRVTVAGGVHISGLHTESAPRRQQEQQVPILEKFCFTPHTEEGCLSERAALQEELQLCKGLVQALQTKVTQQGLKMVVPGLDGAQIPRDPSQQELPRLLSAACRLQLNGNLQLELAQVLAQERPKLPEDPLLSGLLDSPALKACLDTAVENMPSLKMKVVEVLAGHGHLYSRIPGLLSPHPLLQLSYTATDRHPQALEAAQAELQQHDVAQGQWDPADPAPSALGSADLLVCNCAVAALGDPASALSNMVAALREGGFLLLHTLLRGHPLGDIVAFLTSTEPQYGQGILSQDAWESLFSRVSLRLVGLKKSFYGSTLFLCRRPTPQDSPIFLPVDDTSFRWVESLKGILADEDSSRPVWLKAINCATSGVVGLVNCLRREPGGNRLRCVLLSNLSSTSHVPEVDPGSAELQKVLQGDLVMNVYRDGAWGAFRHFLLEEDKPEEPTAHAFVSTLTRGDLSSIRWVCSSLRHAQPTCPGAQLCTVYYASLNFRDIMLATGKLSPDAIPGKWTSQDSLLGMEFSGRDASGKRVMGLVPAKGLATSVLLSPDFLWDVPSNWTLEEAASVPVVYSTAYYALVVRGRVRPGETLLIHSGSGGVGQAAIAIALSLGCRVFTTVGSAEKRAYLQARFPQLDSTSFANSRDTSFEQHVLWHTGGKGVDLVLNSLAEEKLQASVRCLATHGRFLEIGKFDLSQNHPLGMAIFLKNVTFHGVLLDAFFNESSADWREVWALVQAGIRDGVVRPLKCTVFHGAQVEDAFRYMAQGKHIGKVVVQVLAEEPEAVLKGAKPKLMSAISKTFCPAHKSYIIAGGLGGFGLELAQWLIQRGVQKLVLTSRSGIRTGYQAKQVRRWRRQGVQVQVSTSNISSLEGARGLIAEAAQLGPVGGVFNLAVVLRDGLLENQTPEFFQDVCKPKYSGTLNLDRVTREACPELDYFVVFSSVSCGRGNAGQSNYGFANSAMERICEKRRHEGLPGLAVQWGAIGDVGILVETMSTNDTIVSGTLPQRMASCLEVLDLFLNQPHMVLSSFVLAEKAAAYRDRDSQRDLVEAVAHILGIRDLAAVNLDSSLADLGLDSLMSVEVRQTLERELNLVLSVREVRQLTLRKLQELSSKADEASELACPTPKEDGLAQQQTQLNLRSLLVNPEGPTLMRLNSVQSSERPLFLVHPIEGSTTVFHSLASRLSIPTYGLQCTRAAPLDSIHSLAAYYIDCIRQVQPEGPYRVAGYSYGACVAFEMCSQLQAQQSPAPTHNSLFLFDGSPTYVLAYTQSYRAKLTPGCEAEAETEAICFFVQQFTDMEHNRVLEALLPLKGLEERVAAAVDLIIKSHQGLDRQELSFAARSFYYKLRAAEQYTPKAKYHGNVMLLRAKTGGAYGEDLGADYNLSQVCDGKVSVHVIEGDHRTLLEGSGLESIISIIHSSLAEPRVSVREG

[7] = sheet Exp1, SKBR3 cells, 11 0.5 µM 3 h vs DMSO
[8] = sheet Exp1, SKBR3 cells, 11 0.5 µM 3 h vs with PU-H71 10 µM
[9] = sheet Merged, SKBR3 cells, 11 0.5 µM 3 h vs DMSO
[10] = sheet Merged, SKBR3 cells, 11 0.5 µM 3 h vs with PU-H71 10 µM

Chain of tubulin beta chain (TUBB) (P07437 whole entry, canonical isoform): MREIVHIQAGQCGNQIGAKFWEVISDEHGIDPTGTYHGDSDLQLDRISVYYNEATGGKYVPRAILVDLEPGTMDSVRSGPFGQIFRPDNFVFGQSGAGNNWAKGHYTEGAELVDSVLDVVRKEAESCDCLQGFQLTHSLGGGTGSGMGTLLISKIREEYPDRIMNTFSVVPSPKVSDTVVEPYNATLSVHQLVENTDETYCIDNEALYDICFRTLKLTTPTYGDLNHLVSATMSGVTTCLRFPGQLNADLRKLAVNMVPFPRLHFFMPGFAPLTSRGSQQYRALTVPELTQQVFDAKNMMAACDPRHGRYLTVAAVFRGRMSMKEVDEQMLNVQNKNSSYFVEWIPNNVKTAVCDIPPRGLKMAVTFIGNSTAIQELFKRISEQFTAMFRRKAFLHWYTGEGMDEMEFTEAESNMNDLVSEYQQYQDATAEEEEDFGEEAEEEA
Chain of tubulin beta chain (TUBB) (P68363 whole entry partner, canonical isoform): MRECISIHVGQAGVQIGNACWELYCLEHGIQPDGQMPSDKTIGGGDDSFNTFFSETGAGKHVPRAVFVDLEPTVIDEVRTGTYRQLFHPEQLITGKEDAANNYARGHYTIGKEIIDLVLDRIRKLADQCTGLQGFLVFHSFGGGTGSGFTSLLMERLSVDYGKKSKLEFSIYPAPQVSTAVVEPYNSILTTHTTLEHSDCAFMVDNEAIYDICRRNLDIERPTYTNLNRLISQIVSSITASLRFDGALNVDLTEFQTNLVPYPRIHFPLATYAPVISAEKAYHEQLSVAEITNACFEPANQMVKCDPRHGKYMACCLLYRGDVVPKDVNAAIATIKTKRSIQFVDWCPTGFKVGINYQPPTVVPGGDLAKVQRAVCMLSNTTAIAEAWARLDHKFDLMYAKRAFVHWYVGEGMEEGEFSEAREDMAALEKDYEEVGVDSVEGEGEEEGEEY

Abundance Ratio: (11) / (11 with PU-H71) ([1]; Exp3, ATP1A1): 0.969
Abundance Ratio: (11) / (DMSO) ([1]; Exp3, ATP1A1): 3.731
Abundances (Grouped): 11 ([1]; Exp3, ATP1A1): 59.7
Abundances (Grouped): 11 with PU-H71 ([1]; Exp3, ATP1A1): 61.6
Abundance Ratio: (11) / (DMSO) [1, 7]: 1.112
Abundance Ratio: (11) / (11 with PU-H71) [1, 8]: 0.455
Abundance Ratio: (11) / (11 with PU-H71) ([1]; sheet Exp2, ATP1A1): 0.735
Abundance Ratio: (11) / (DMSO) ([1]; sheet Exp2, ATP1A1): 2.007
Abundances (Grouped): 11 ([1]; sheet Exp2, ATP1A1): 162
Abundances (Grouped): 11 with PU-H71 ([1]; sheet Exp2, ATP1A1): 220.4
Abundance Ratio: (11) / (DMSO) [1, 9]: 1.112
Abundance Ratio: (11) / (11 with PU-H71) [1, 10]: 0.455
Abundance Ratio: (11) / (11 with PU-H71) ([2]; Exp3, TUBB): 0.804
Abundance Ratio: (11) / (DMSO) ([2]; Exp3, TUBB): 4.633
Abundances (Grouped): 11 ([2]; Exp3, TUBB): 127.4
Abundances (Grouped): 11 with PU-H71 ([2]; Exp3, TUBB): 158.4
Abundance Ratio: (11) / (DMSO) [2, 7]: 3.833
Abundance Ratio: (11) / (11 with PU-H71) [2, 8]: 0.775
Abundance Ratio: (11) / (11 with PU-H71) ([2]; sheet Exp2, TUBB): 0.757
Abundance Ratio: (11) / (DMSO) ([2]; sheet Exp2, TUBB): 3.139
Abundances (Grouped): 11 ([2]; sheet Exp2, TUBB): 115.5
Abundances (Grouped): 11 with PU-H71 ([2]; sheet Exp2, TUBB): 152.6
Abundance Ratio: (11) / (DMSO) [2, 9]: 3.599
Abundance Ratio: (11) / (11 with PU-H71) [2, 10]: 0.804
Abundance Ratio: (11) / (DMSO) ([3]; sheet Exp1): 4.152
Abundance Ratio: (11) / (11 with PU-H71) ([3]; sheet Exp1): 0.818
Abundance Ratio: (11) / (DMSO) ([3]; sheet Merged): 1.23
Abundance Ratio: (11) / (11 with PU-H71) ([3]; sheet Merged): 0.746
Abundance Ratio: (11) / (11 with PU-H71) ([4]; Exp3, UQCRC1): 0.7
Abundance Ratio: (11) / (DMSO) ([4]; Exp3, UQCRC1): 3
Abundances (Grouped): 11 ([4]; Exp3, UQCRC1): 50.1
Abundances (Grouped): 11 with PU-H71 ([4]; Exp3, UQCRC1): 71.6
Abundance Ratio: (11) / (11 with PU-H71) ([4]; sheet Exp2, UQCRC1): 0.772
Abundance Ratio: (11) / (DMSO) ([4]; sheet Exp2, UQCRC1): 3.724
Abundances (Grouped): 11 ([4]; sheet Exp2, UQCRC1): 60.7
Abundances (Grouped): 11 with PU-H71 ([4]; sheet Exp2, UQCRC1): 78.6
Abundance Ratio: (11) / (DMSO) [4, 9]: 3.342
Abundance Ratio: (11) / (11 with PU-H71) [4, 10]: 0.735
Abundance Ratio: (11) / (11 with PU-H71) ([5]; Exp3, P4HB): 0.934
Abundance Ratio: (11) / (DMSO) ([5]; Exp3, P4HB): 3.442
Abundances (Grouped): 11 ([5]; Exp3, P4HB): 191.7
Abundances (Grouped): 11 with PU-H71 ([5]; Exp3, P4HB): 205.3
Abundance Ratio: (11) / (DMSO) [5, 7]: 2.885
Abundance Ratio: (11) / (11 with PU-H71) [5, 8]: 0.887
Abundance Ratio: (11) / (11 with PU-H71) ([5]; sheet Exp2, P4HB): 0.87
Abundance Ratio: (11) / (DMSO) ([5]; sheet Exp2, P4HB): 2.206
Abundances (Grouped): 11 ([5]; sheet Exp2, P4HB): 186
Abundances (Grouped): 11 with PU-H71 ([5]; sheet Exp2, P4HB): 213.9
Abundance Ratio: (11) / (DMSO) [5, 9]: 2.274
Abundance Ratio: (11) / (11 with PU-H71) [5, 10]: 0.896
Abundance Ratio: (11) / (11 with PU-H71) ([6]; Exp3, FASN): 0.917
Abundance Ratio: (11) / (DMSO) ([6]; Exp3, FASN): 4.35
Abundances (Grouped): 11 ([6]; Exp3, FASN): 3505
Abundances (Grouped): 11 with PU-H71 ([6]; Exp3, FASN): 3823.4
Abundance Ratio: (11) / (DMSO) [6, 7]: 4.652
Abundance Ratio: (11) / (11 with PU-H71) [6, 8]: 0.931
Abundance Ratio: (11) / (11 with PU-H71) ([6]; sheet Exp2, FASN): 0.929
Abundance Ratio: (11) / (DMSO) ([6]; sheet Exp2, FASN): 4.46
Abundances (Grouped): 11 ([6]; sheet Exp2, FASN): 3656.7
Abundances (Grouped): 11 with PU-H71 ([6]; sheet Exp2, FASN): 3935.1
Abundance Ratio: (11) / (DMSO) [6, 9]: 4.491
Abundance Ratio: (11) / (11 with PU-H71) [6, 10]: 0.931
Structure (SMILES): CC(=O)Oc1ccc2c(c1)Oc1cc(OC(C)=O)ccc1C21OC(=O)c2cc(C(=O)NCCOCCOCCNC(=O)CCCC(=O)N(CC#N)S(=O)(=O)c3ccc(C(=O)NCCCn4c(Sc5cc6c(cc5I)OCO6)nc5c(N)ncnc54)cc3)ccc21 [compound 11]
